Data: ChEMBL document CHEMBL1137360, “Structure-activity relationships of a novel series of urotensin II analogues: identification of a urotensin II antagonist” (J Med Chem, 2006)
The source made the active and inactive calls. The calls are words filed in the database; no cut-off is given here.

Experiments:
Rattus norvegicus [1] = organism: Rattus norvegicus; experiment: Agonist activity in rat aortic ring contraction assay; format: functional; conditions: Aorta
Rattus norvegicus [2] = organism: Rattus norvegicus; experiment: Agonist activity in rat aortic ring contraction assay relative to 1 uM phenylephrine; format: functional; conditions: Aorta
Urotensin-2 receptor [3] = molecular target: T1, Urotensin-2 receptor (Homo sapiens, UniProt Q9UKP6); experiment: Displacement of [125I]human urotensin-2 from human GPR14 transfected in CHO cells; format: cell-based
T1 sequence (Q9UKP6 whole entry): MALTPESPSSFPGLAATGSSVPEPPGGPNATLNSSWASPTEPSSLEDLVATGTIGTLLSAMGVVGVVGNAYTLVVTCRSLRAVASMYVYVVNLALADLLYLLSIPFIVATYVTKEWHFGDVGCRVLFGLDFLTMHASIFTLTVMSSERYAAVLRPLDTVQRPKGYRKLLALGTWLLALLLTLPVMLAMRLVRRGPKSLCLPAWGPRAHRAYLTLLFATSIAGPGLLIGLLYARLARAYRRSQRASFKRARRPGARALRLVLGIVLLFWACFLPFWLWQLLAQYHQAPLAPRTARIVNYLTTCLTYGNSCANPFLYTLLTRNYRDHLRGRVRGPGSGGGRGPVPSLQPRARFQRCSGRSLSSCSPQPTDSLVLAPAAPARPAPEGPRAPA

Urotensin-2 receptor [4] = molecular target: T2, Urotensin-2 receptor (Rattus norvegicus, UniProt P49684); experiment: Antagonist potency against human urotensin-2-induced contraction of rat aortic ring; format: functional, tissue-based, Aorta; conditions: read-out: pA2 (converted)
T2 sequence (P49684 whole entry): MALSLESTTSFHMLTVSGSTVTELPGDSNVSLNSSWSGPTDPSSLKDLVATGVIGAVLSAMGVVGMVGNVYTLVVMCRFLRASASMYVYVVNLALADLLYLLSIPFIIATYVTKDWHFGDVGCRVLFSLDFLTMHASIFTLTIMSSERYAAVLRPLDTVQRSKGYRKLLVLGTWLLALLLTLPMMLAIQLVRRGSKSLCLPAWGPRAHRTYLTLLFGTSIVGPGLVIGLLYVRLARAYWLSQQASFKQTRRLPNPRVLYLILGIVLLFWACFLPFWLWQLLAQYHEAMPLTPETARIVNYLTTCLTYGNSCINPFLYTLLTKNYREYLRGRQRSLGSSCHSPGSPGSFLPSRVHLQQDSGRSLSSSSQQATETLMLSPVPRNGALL

[5] = molecular target: T3, Urotensin-2 receptor (Rattus norvegicus) (UniProt P49684); experiment: Antagonist activity against 0.1 uM human urotensin-2-induced contraction of rat aortic ring; format: functional, tissue-based; design: scale not given: the % may be the effect or the level left; conditions: Aorta
T3 sequence (whole entry): T2 sequence (P49684 whole entry)

EC50 (Rattus norvegicus [1]): > 10000 nM
Ki (Urotensin-2 receptor [3]): 407 nM
Kb (Urotensin-2 receptor [4]): 813 nM
Activity [5]: 95.7%
Compound: CC(C)[C@H](NC(=O)[C@@H]1CSSC[C@H](NC(=O)[C@@H](N)CC(=O)O)C(=O)N[C@@H](CC2CCCCC2)C(=O)N[C@@H](Cc2c[nH]c3ccccc23)C(=O)N[C@@H](CCCCN)C(=O)N[C@@H](Cc2ccc(O)cc2)C(=O)N1)C(=O)O
Activity (Rattus norvegicus [2]): inactive
